Data reported in paper PMC7049299, “UGT74AF3 enzymes specifically catalyze the glucosylation of 4-hydroxy-2,5-dimethylfuran-3(2H)-one, an important volatile compound in Camellia sinensis” (Horticulture Research, 2020).

Tests used:
[1] = molecular target: T1, UGT74AF3b (Camellia sinensis, UniProt A0A4S4DWR1); assay: relative glycosyltransferase activity; format: biochemical; details: UDP-Glc, UDP-Gal or UDP-GA as sugar donor
T1 construct: gene TEA_014443; full-length, N-terminal GST tag (pGEX-4T-1), E. coli BL21(DE3) pLysS, GST-resin purified; Ala at residue 456

[2] = molecular target: T1, UGT74AF3b; assay: glucosyltransferase kinetics (UDP-Glo assay / LC-MS; readout for kinetics not told); format: biochemical; details: optimized conditions (optimum pH 8.5, 30 °C); sugar donor not stated for kinetics, presumably UDP-glucose
Description: glucosyltransferase kinetics (UDP-Glo assay / LC-MS; readout for kinetics not told) on UGT74AF3b

T1 sequence (A0A4S4DWR1 entry or part of it): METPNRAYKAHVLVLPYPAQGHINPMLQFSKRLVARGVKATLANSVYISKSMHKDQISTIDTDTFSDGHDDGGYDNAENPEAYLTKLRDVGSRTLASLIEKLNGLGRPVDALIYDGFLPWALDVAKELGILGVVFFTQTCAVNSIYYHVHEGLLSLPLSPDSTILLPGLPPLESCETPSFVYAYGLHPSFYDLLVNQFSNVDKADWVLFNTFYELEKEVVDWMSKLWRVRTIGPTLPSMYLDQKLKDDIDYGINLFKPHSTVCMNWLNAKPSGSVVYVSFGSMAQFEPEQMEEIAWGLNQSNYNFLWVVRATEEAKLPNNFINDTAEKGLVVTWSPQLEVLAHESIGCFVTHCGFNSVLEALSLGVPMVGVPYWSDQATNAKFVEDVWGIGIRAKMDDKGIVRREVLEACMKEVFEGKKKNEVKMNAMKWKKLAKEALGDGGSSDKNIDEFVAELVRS

Km [2]: 5.14 ± 1.58 µM
SMILES: CC1=C(O)C(=O)C(C)O1 (centres unmarked) [HDMF, 4-Hydroxy-2,5-dimethylfuran-3(2H)-one]
relative enzymatic activity [1]: The A456V mutant exhibited enhanced glucosylation activity toward HDMF, EHMF, and HMF
